In ChEMBL document CHEMBL1201862, “PubChem BioAssay data set” (2004):
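Cultured in 96-well plates, cells were exposed to test compound for 48 hours across five concentrations. Abbreviation: GI50, concentration required for 50% inhibition of growth.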 Activity calls are given as the source filed them. Rule as the data show it: active = GI50 up to about 1.1 µM and inactive = higher.

How the values were obtained:
Assay in all cases: inhibition of tumour cell growth, NCI panel, 48 h
786-0 = tested on: 786-0
CCRF-CEM = tested on: CCRF-CEM
COLO 205 = tested on: COLO 205
HCT-116 = tested on: HCT-116
HOP-92 = tested on: HOP-92
Hs-578T = tested on: Hs-578T
KM12 = tested on: KM12
MCF7 = tested on: MCF7
MDA-MB-231 = tested on: MDA-MB-231
MDA-MB-435 = tested on: MDA-MB-435
OVCAR-4 = tested on: OVCAR-4
OVCAR-5 = tested on: OVCAR-5
OVCAR-8 = tested on: OVCAR-8
PC-3 = tested on: PC-3
RPMI-8226 = tested on: RPMI-8226
RXF 393 = tested on: RXF 393
SF-539 = tested on: SF-539
SR = tested on: SR
U-251 = tested on: U-251

Row | Compound | GI50 (786-0) | GI50 (CCRF-CEM) | GI50 (COLO 205) | GI50 (HCT-116) | GI50 (HOP-92) | GI50 (Hs-578T) | GI50 (KM12) | GI50 (MCF7) | GI50 (MDA-MB-231) | GI50 (MDA-MB-435) | GI50 (OVCAR-4) | GI50 (OVCAR-5) | GI50 (OVCAR-8) | GI50 (PC-3) | GI50 (RPMI-8226) | GI50 (RXF 393) | GI50 (SF-539) | GI50 (SR) | GI50 (U-251)
1 | Cc1ccc2cccc(-c3cccc4ccccc34)c2n1 | 27.4 µM (inactive) | 19.8 µM (inactive) | 23.7 µM (inactive) | 17.8 µM (inactive) | 12.6 µM (inactive) | 23.5 µM (inactive) | 15 µM (inactive) | > 10 µM (inactive) | 22.9 µM (inactive) | 2.69 µM (inactive) | 24.9 µM (inactive) | 18.3 µM (inactive) | 22.1 µM (inactive) | 29.2 µM (inactive) | 13.1 µM (inactive) | 13.6 µM (inactive) | 24 µM (inactive) | 12.6 µM (inactive) | 12.7 µM (inactive)
2 | O=C1NC(SSC2=NNC3(C(=O)N2)c2ccccc2-c2ccccc23)=NNC12c1ccccc1-c1ccccc12 | > 10 µM (inactive) | > 10 µM (inactive) | > 10 µM (inactive) | > 10 µM (inactive) | > 10 µM (inactive) | > 10 µM (inactive) | > 10 µM (inactive) | > 10 µM (inactive) | > 10 µM (inactive) | > 10 µM (inactive) | > 10 µM (inactive) | > 10 µM (inactive) | > 10 µM (inactive) | > 10 µM (inactive) | > 10 µM (inactive) | > 10 µM (inactive) | > 10 µM (inactive) | > 10 µM (inactive) | > 10 µM (inactive)
3 | O=[N+]([O-])c1ccc(C[S+]([O-])Cc2ccccc2)cc1 (stereo unspecified) | > 100 µM (inactive) | > 100 µM (inactive) | > 100 µM (inactive) | > 100 µM (inactive) | > 100 µM (inactive) | > 100 µM (inactive) | > 100 µM (inactive) | > 100 µM (inactive) | > 100 µM (inactive) | > 100 µM (inactive) | > 100 µM (inactive) | > 100 µM (inactive) | > 100 µM (inactive) | > 100 µM (inactive) | > 100 µM (inactive) | > 100 µM (inactive) | > 100 µM (inactive) | > 100 µM (inactive) | > 100 µM (inactive)
4 | COc1ccc(OC)c(/C=C/c2cnnc3ccccc23)c1 | 6.67 µM (inactive) | 3.38 µM (inactive) | 4.1 µM (inactive) | 3.4 µM (inactive) | 3.89 µM (inactive) | 1.43 µM (inactive) | 2.8 µM (inactive) | 1.85 µM (inactive) | 9.46 µM (inactive) | 0.638 µM (active) | 5.48 µM (inactive) | > 10 µM (inactive) | 7.5 µM (inactive) | 7.69 µM (inactive) | 3.16 µM (inactive) | 2.25 µM (inactive) | 2.39 µM (inactive) | 1.51 µM (inactive) | 5.19 µM (inactive)
5 | Cc1cc(CCC(=O)NCCNc2c3ccccc3nc3ccccc23)cc(C)c1O[Si](C)(C)C(C)(C)C | 0.39 µM (active) | 0.38 µM (active) | 1.03 µM (active) | 0.363 µM (active) | 1.53 µM (inactive) | 2.01 µM (inactive) | 0.366 µM (active) | 0.242 µM (active) | 13.1 µM (inactive) | 0.3 µM (active) | 1.32 µM (inactive) | 1.69 µM (inactive) | 1.47 µM (inactive) | 1.55 µM (inactive) | 0.331 µM (active) | 1.5 µM (inactive) | 0.194 µM (active) | 0.214 µM (active) | 0.312 µM (active)
6 | Cc1c(C)c2c(c(N)c1C#N)C(=O)N(O)C2=O | > 100 µM (inactive) | > 100 µM (inactive) | > 100 µM (inactive) | > 100 µM (inactive) | > 100 µM (inactive) | > 100 µM (inactive) | > 100 µM (inactive) | > 100 µM (inactive) | > 100 µM (inactive) | > 100 µM (inactive) | > 100 µM (inactive) | > 100 µM (inactive) | > 100 µM (inactive) | > 100 µM (inactive) | > 100 µM (inactive) | > 100 µM (inactive) | > 100 µM (inactive) | > 100 µM (inactive) | > 100 µM (inactive)
7 | Cc1ccc(NCCN(C)C)c2c(=O)c3cc(O)ccc3oc12 | 5.24 µM (inactive) | 2.28 µM (inactive) | 10.8 µM (inactive) | 4.86 µM (inactive) | 11.1 µM (inactive) | 6.41 µM (inactive) | 11.2 µM (inactive) | 5.38 µM (inactive) | 9.04 µM (inactive) | 12 µM (inactive) | 17 µM (inactive) | 15.5 µM (inactive) | 6.97 µM (inactive) | 11.8 µM (inactive) | 5.08 µM (inactive) | 11.9 µM (inactive) | 8.28 µM (inactive) | 0.083 µM (active) | 8.2 µM (inactive)
8 | COc1c2c(cc3c1-c1c(cc4c(c1OC)OCO4)C1OC3C(C)C1C)OCO2.COc1cc2c(c(OC)c1OC)-c1c(cc3c(c1OC)OCO3)C1OC2C(C)C1C (stereo unspecified) | > 100 µM (inactive) | 40.4 µM (inactive) | > 100 µM (inactive) | 87.3 µM (inactive) | > 100 µM (inactive) | > 100 µM (inactive) | 95.1 µM (inactive) | > 100 µM (inactive) | 8 µM (inactive) | > 100 µM (inactive) | > 100 µM (inactive) | > 100 µM (inactive) | 57 µM (inactive) | 37.8 µM (inactive) | 33 µM (inactive) | > 100 µM (inactive) | > 100 µM (inactive) | > 100 µM (inactive) | > 100 µM (inactive)
9 | Oc1cc(CN2COc3ccccc32)c(O)cc1CNC1CCCCC1 | 18.5 µM (inactive) | 4.53 µM (inactive) | 17 µM (inactive) | 18.3 µM (inactive) | 28.2 µM (inactive) | 28.7 µM (inactive) | 49.9 µM (inactive) | 20.4 µM (inactive) | 21.9 µM (inactive) | 24.6 µM (inactive) | 20.3 µM (inactive) | > 100 µM (inactive) | 24 µM (inactive) | 19.3 µM (inactive) | 23.8 µM (inactive) | 21.5 µM (inactive) | 19.5 µM (inactive) | 20.1 µM (inactive) | 17.7 µM (inactive)
10 | CC1=NN2C(=N)/C(=C/c3ccccc3)C(=O)N=C2S1 | > 100 µM (inactive) | > 100 µM (inactive) | > 100 µM (inactive) | > 100 µM (inactive) | > 100 µM (inactive) | > 100 µM (inactive) | > 100 µM (inactive) | 0.867 µM (active) | > 100 µM (inactive) | > 100 µM (inactive) | > 100 µM (inactive) | > 100 µM (inactive) | > 100 µM (inactive) | > 100 µM (inactive) | > 100 µM (inactive) | > 100 µM (inactive) | > 100 µM (inactive) | > 100 µM (inactive) | > 100 µM (inactive)
11 | CC(C)NC(=O)OCc1c(COC(=O)NC(C)C)c(-c2ccc[n+](COC(=O)C3CC3)c2)n2c1CCC2 | 27 µM (inactive) | 30.4 µM (inactive) | 70.5 µM (inactive) | 60.5 µM (inactive) | 40.8 µM (inactive) | 79.3 µM (inactive) | > 100 µM (inactive) | 49.5 µM (inactive) | > 100 µM (inactive) | > 100 µM (inactive) | 45.8 µM (inactive) | > 100 µM (inactive) | 55 µM (inactive) | 50.5 µM (inactive) | 60.4 µM (inactive) | 34.2 µM (inactive) | 44.7 µM (inactive) | 3.51 µM (inactive) | 56 µM (inactive)
12 | O=C1CS/C(=N/N=C/c2cn(Cc3ccc(Cl)cc3Cl)c3ccccc23)N1 | 22.4 µM (inactive) | 15.8 µM (inactive) | > 100 µM (inactive) | 44.6 µM (inactive) | 28.2 µM (inactive) | 25.8 µM (inactive) | 54.3 µM (inactive) | 18.5 µM (inactive) | 17 µM (inactive) | 25 µM (inactive) | 21.8 µM (inactive) | > 100 µM (inactive) | 10.8 µM (inactive) | 19.6 µM (inactive) | 52.1 µM (inactive) | 24.9 µM (inactive) | 18.2 µM (inactive) | 14.1 µM (inactive) | 17.3 µM (inactive)
13 | [N-]=[N+]=NC1C(O)C(CO)OC1n1cnc2c(N)ncnc21 (stereo unspecified) | 30.8 µM (inactive) | 10.1 µM (inactive) | > 100 µM (inactive) | 42.3 µM (inactive) | 45.7 µM (inactive) | > 100 µM (inactive) | 74.3 µM (inactive) | 5.21 µM (inactive) | > 100 µM (inactive) | 82.6 µM (inactive) | > 100 µM (inactive) | > 100 µM (inactive) | 37.9 µM (inactive) | 74.3 µM (inactive) | 45.8 µM (inactive) | 66.2 µM (inactive) | 27.9 µM (inactive) | 1.67 µM (inactive) | > 100 µM (inactive)
14 | C=C1C(C(O)C[C@H](C)C2O[C@@]3(CCCCO3)CCC2C)O[C@@H]2CCC3(CCC(/C=C/[C@@H](C)C4CC(C)=CC5(O4)O[C@H](C[C@](C)(O)C(=O)O)CCC5O)O3)OC2[C@@H]1O (stereo partly specified) | 0.00912 µM (active) | 0.00826 µM (active) | 0.00376 µM (active) | 0.00381 µM (active) | 0.00375 µM (active) | 0.00318 µM (active) | 0.00374 µM (active) | 0.0065 µM (active) | 0.00411 µM (active) | 0.00075 µM (active) | 0.0286 µM (active) | 0.00826 µM (active) | 0.00693 µM (active) | 0.00545 µM (active) | 0.00315 µM (active) | 0.018 µM (active) | 0.00254 µM (active) | 0.00964 µM (active) | 0.00105 µM (active)
